Test results: ChEMBL document CHEMBL1201862, “PubChem BioAssay data set” (2004)
The source made the active and inactive calls.

What was measured:
[1] = biological target: T1, Tyrosine-protein phosphatase non-receptor type 7 (Homo sapiens, UniProt P35236); assay: redox-dependent HePTP inhibition, mechanism study, biochemical, fluorescence (AID 2068); assay type: functional
T1 sequence (P35236 whole entry): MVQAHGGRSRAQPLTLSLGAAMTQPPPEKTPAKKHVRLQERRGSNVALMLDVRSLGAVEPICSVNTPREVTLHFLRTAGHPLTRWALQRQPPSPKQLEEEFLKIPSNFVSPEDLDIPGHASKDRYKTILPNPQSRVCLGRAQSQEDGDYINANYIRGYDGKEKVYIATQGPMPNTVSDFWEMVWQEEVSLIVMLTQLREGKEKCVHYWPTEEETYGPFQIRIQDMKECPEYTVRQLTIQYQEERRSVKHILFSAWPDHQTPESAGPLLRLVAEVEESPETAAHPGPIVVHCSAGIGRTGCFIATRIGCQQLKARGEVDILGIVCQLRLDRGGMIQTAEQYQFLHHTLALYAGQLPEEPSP

[2] = biological target: T2, Dual specificity protein phosphatase 6 (Rattus norvegicus, UniProt Q64346); assay type: functional;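 also: confirmatory in vitro dose-response testing of MKP-3 inhibition; recombinant His-tagged MKP-3 made in E. coli BL21 with OMFP substrate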
T2 sequence (Q64346 whole entry): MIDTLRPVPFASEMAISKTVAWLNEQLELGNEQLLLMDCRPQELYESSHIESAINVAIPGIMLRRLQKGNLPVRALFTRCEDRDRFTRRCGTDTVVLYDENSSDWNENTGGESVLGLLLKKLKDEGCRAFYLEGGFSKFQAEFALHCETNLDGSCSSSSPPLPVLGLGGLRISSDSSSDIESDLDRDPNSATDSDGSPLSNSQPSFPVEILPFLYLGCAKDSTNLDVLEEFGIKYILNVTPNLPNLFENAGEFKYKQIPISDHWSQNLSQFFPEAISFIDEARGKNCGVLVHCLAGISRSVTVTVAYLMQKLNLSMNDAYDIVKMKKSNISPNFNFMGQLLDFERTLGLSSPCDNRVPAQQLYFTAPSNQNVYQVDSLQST

Vero [3] = assay: cells; assay type: functional, cell-based; details: Chlorocebus sabaeus
[4] = system: Streptococcus sp. 'group A'; assay: growth inhibition of control SK(-) GAS strain, dose response, counter-screen for streptokinase expression inhibitor project, luminescence, kanamycin, BacTiterGlo, confirmation (AID 1900); assay type: functional, organism-based
Streptokinase A = biological target: T3, Streptokinase A (Streptococcus pyogenes serotype M1, UniProt P10520); assay: S. pyogenes streptokinase expression inhibitors, potency, dose response, plasminogen activation absorbance, OD405 (AID 1914); assay type: functional, Streptococcus pyogenes M1 GAS;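 also: secreted streptokinase activity via plasminogen activation per viability signal from cell pellet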
T3 sequence (P10520 whole entry): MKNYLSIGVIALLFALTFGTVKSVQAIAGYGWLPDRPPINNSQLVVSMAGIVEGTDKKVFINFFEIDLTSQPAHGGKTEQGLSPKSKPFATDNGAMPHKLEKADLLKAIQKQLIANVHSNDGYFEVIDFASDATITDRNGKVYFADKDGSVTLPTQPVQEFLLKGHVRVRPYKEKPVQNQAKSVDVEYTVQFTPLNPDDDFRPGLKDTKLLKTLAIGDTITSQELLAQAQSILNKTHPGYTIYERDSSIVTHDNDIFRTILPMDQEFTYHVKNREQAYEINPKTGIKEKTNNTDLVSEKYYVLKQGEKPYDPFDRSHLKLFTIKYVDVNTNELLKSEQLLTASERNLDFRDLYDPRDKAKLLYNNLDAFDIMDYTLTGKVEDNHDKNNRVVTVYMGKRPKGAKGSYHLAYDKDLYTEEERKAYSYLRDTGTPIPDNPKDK

Streptococcus = assay: Group A Streptococcus viability loss, dose response, counter-screen for streptokinase expression inhibitor project, luminescence, BacTiterGlo (AID 1915); assay type: functional, organism-based;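 also: potency for reduction of bacterial viability or growth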
[5] = Luminescence Cell-Based Dose Retest to Confirm Inhibitors of Cancer Stem Cells. [Related pubchem assays (depositor defined):AID2717, AID2721]; assay type: functional; details: Homo sapiens
[6] = biological target: Intestinal-type alkaline phosphatase (Mus musculus, UniProt P24822); assay: PubChem AID 488785; assay type: functional
[7] = biological target: T4, Alkaline phosphatase, tissue-nonspecific isozyme (Homo sapiens, UniProt P05186); assay: TNAP enzyme inhibition by screening hits, dose response, selectivity assay for mouse IAP inhibitor project, biochemical, human TNAP, uHTS hits (AID 488906); assay type: functional
T4 sequence (P05186 whole entry): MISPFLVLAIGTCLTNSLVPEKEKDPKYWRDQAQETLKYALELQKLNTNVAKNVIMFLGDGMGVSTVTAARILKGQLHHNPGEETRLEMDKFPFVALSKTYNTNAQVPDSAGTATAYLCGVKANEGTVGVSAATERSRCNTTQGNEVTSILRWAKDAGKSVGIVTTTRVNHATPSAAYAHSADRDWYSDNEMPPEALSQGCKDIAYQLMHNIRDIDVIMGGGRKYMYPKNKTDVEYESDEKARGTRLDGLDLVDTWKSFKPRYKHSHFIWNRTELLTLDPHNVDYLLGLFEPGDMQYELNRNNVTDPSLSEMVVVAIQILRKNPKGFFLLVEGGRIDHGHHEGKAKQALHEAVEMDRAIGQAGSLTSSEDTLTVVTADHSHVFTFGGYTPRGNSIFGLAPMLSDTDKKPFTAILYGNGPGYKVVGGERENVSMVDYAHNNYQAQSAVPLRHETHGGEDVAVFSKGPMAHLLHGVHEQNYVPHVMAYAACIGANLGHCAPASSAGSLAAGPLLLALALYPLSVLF

[8] = biological target: Intestinal-type alkaline phosphatase (Homo sapiens, UniProt P09923); assay: inhibition of human intestinal alkaline phosphatase – biochemical, dose response (AID 488876); assay type: functional
[9] = biological target: T5, High affinity choline transporter 1 (Homo sapiens, UniProt Q9GZV3); assay: CHT inhibitors, dose response, cell-based, 5-point CRC, membrane potential dye (AID 504840); assay type: functional
T5 sequence (Q9GZV3 whole entry): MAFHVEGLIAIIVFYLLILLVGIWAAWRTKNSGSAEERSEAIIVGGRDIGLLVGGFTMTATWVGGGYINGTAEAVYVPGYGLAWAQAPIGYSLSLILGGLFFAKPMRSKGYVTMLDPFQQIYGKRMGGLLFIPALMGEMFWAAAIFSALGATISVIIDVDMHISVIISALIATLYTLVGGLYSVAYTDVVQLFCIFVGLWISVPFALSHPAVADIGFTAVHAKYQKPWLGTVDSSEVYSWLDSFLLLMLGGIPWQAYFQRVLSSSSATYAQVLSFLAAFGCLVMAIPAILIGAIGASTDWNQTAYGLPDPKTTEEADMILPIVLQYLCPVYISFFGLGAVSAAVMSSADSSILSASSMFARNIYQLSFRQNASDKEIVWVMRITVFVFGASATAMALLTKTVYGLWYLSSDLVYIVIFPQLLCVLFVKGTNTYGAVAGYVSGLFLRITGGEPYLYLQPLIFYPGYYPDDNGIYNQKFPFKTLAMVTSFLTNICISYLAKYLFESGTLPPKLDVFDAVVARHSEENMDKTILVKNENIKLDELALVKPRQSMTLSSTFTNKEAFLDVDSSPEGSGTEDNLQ

Estrogen receptor = biological target: T6, Estrogen receptor (Homo sapiens, UniProt P03372);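 also: potency for inhibiting coactivator peptide recruitment to the receptor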
T6 sequence (P03372 whole entry): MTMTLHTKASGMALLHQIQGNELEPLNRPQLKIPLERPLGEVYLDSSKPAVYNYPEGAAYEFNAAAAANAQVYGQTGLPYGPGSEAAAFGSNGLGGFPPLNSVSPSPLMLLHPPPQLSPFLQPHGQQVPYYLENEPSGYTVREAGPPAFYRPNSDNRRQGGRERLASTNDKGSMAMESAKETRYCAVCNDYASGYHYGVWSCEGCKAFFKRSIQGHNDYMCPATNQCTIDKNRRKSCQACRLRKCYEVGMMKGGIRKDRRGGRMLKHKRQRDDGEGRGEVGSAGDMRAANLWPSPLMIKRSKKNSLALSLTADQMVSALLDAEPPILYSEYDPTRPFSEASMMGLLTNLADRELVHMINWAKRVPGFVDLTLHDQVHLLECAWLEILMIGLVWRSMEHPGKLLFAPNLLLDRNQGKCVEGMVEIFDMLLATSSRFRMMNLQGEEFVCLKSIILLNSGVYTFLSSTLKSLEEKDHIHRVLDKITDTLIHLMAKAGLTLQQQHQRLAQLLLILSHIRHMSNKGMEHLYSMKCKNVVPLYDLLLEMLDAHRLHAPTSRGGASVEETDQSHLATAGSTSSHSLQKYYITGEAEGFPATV

Coagulation factor XII = biological target: T7, Coagulation factor XII (Homo sapiens, UniProt P00748); assay type: functional;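 also: activated factor XIIa alpha cleaving a fluorogenic AMC peptide substrate; inhibitor potency from loss of enzyme activity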
T7 sequence (P00748 whole entry): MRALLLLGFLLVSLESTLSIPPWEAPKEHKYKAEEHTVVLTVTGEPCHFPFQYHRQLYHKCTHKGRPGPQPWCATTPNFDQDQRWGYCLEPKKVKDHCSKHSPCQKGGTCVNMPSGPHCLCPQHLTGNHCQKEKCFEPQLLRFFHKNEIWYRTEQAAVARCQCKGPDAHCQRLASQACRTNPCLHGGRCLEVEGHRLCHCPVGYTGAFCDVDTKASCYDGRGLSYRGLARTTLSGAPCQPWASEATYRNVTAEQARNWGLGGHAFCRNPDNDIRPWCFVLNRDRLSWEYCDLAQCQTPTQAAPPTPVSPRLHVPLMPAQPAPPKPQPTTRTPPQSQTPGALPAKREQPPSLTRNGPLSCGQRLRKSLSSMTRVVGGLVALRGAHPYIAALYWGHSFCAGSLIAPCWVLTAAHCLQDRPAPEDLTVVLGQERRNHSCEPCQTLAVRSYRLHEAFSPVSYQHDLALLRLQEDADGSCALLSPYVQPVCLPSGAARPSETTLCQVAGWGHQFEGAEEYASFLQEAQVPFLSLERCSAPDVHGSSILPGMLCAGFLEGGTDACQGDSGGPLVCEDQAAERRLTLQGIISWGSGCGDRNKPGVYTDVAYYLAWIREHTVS

Tumor necrosis factor = Tumor necrosis factor (Homo sapiens, UniProt P01375); assay: TNFa-triggered NF-kB activation inhibitors, SAR follow-up, cell-based, revised (AID 2337); assay type: functional
[10] = biological target: T8, Nucleotide-binding oligomerization domain-containing protein 1 (Homo sapiens, UniProt Q9Y239); assay: NOD1 signaling inhibitors, SAR follow-up, revised (AID 2333); assay type: functional
T8 sequence (Q9Y239 whole entry): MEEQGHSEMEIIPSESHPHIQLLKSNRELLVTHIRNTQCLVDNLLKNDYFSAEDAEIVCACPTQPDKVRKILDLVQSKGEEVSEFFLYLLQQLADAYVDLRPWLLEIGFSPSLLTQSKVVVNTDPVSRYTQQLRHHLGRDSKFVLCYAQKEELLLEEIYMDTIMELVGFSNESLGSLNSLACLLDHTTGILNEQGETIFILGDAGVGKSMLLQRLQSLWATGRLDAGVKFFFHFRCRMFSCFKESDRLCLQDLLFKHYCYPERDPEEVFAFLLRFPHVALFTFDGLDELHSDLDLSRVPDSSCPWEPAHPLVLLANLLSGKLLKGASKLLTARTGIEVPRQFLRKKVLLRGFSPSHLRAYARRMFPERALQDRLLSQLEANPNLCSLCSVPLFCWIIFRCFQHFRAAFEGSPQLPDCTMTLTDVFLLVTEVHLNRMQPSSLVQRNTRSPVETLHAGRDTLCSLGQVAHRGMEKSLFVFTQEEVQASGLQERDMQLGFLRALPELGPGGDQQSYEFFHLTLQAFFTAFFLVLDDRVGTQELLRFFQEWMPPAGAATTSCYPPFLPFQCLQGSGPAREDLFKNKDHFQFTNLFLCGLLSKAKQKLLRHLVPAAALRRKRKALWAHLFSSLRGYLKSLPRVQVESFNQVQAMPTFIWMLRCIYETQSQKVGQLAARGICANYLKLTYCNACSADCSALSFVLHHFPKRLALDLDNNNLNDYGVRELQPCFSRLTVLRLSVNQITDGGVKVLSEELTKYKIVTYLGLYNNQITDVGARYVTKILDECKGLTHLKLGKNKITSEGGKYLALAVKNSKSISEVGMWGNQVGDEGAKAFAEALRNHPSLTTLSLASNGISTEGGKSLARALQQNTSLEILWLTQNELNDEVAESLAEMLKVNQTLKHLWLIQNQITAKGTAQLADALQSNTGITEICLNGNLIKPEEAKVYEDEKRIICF

HEK293 = assay: cells; details: Homo sapiens;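 also: cells exposed to compound for 14 hours overnight before viability readout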
Nonstructural protein 1 = Nonstructural protein 1 (Influenza A virus, UniProt Q194T2); assay type: functional, Influenza A virus (A/California/07/2009(H1N1))
Exodeoxyribonuclease V = Exodeoxyribonuclease V (Escherichia coli (strain K12), UniProt P04993+P07648+P08394); assay: E. coli RecBCD inhibitors, dose response, counter-screen for AddAB inhibitor project, absorbance, V66 E. coli, mutant T4 phage (AID 492957); assay type: functional, cell-based, Escherichia coli str. K-12 substr. MG1655
[11] = Counterscreen for AddAB inhibitors: absorbance-based bacterial cell-based high throughput dose response assay for inhibitors of bacterial viability. [Related pubchem assays (depositor defined):AID435030, AID449728, AID449731, AID488942, AID488955, AID488956]; assay type: functional
Vero [12] = assay: cells; assay type: functional; details: Chlorocebus sabaeus
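For AC50 in this document: cells exposed to compound for roughly 70 hours or longer before luminescence read.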

Sequence of Intestinal-type alkaline phosphatase (Mus musculus, UniProt P24822) (P24822 whole entry): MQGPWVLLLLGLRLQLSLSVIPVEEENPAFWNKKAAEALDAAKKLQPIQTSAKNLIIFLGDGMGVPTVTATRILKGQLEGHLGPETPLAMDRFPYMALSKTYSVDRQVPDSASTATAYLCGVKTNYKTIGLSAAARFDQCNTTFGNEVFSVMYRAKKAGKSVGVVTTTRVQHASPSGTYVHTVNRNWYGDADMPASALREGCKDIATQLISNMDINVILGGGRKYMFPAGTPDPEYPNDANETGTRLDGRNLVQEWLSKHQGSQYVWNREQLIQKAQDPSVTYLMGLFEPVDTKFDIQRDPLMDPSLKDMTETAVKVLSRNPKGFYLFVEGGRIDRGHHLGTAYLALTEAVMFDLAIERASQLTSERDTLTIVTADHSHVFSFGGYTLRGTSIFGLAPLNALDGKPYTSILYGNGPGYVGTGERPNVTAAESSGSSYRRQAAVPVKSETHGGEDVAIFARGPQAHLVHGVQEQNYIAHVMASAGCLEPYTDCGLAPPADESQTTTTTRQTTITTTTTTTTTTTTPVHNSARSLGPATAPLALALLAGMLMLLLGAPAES
Sequence of Intestinal-type alkaline phosphatase (Homo sapiens, UniProt P09923) (P09923 whole entry): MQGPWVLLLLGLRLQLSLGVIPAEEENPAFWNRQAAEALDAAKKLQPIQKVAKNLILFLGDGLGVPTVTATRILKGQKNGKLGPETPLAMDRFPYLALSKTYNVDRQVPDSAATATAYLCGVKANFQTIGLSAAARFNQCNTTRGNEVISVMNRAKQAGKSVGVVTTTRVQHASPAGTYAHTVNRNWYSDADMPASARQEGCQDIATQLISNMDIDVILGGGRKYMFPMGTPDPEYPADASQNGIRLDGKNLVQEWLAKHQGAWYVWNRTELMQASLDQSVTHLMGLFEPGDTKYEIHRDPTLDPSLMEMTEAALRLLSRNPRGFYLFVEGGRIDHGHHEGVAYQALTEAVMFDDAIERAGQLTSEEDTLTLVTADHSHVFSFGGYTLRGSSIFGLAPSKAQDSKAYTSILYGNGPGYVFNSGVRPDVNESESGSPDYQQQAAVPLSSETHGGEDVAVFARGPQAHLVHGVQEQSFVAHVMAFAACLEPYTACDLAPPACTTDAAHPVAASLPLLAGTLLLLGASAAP
Sequence of Exodeoxyribonuclease V (P04993 whole entry): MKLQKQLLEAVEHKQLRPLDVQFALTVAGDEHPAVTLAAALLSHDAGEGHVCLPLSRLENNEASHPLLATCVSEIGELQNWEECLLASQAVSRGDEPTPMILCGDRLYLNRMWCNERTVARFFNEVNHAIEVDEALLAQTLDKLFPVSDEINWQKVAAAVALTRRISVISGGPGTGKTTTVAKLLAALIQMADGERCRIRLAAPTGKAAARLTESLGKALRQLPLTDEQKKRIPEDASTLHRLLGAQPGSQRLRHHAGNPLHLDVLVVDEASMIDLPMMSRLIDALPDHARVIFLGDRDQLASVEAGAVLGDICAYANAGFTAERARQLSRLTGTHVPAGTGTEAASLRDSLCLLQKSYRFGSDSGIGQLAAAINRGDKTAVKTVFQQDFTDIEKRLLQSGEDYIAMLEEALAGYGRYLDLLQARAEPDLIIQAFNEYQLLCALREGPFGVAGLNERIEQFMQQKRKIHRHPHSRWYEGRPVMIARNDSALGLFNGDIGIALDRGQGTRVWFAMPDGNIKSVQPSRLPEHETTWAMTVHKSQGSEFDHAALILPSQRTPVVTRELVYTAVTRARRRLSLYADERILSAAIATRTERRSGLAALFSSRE
Sequence of Exodeoxyribonuclease V (P07648 whole entry): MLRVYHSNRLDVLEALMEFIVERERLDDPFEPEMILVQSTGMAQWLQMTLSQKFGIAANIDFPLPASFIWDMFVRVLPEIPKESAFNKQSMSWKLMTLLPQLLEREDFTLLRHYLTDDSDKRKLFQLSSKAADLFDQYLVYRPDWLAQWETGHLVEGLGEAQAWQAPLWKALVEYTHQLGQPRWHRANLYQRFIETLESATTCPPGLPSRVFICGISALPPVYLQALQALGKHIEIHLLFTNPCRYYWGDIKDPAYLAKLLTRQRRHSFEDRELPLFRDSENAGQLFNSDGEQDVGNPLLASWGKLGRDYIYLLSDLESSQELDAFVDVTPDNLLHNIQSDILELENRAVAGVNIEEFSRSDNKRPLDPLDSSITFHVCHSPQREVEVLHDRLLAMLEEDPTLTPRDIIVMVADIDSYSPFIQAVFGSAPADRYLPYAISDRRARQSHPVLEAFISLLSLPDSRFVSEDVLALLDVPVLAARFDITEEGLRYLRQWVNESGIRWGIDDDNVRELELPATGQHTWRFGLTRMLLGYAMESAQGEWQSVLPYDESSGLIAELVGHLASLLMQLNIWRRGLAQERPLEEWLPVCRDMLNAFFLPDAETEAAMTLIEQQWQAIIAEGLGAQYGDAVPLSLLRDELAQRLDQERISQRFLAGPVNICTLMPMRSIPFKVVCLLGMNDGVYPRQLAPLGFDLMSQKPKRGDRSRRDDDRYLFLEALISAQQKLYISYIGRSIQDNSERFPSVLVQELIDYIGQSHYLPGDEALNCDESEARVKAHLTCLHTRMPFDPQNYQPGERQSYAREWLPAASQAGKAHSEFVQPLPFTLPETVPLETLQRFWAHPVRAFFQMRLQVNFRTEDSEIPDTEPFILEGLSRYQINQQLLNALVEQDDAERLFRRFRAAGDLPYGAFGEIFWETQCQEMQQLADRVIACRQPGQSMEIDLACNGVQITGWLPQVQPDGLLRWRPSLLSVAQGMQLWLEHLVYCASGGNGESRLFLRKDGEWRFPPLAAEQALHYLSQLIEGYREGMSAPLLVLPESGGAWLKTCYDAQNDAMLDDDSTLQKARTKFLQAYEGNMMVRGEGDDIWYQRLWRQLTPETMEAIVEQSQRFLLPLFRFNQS
Sequence of Exodeoxyribonuclease V (P08394 whole entry): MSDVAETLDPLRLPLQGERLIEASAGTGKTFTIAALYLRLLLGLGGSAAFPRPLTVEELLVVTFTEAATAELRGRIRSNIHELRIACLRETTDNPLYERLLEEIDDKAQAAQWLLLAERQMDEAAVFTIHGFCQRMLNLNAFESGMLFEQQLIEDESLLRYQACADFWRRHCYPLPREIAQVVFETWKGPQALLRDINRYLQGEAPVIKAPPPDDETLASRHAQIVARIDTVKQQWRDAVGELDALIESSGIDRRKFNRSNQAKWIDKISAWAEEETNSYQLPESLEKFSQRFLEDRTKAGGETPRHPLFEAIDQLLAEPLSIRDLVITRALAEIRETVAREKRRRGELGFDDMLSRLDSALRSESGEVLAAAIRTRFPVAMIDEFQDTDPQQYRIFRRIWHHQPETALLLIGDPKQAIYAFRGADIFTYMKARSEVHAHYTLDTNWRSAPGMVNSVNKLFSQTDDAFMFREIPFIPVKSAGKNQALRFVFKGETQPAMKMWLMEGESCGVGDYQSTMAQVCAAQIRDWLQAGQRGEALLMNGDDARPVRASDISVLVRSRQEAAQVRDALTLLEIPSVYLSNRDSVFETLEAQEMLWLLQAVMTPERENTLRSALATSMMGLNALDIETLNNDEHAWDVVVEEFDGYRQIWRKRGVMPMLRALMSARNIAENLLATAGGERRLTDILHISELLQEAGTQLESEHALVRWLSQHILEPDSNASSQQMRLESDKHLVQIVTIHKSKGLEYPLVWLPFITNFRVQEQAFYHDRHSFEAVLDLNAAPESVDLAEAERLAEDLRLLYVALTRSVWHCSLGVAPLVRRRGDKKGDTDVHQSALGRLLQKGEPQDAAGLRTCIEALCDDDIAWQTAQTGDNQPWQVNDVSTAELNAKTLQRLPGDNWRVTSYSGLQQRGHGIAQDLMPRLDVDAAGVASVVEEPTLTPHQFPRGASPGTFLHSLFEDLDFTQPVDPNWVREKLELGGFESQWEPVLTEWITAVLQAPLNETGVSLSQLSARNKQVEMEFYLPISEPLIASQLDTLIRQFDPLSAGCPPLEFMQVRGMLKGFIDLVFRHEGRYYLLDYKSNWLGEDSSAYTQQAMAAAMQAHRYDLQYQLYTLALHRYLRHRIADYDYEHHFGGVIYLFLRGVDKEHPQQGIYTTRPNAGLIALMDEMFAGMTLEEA
Sequence of Nonstructural protein 1 (Q194T2 whole entry): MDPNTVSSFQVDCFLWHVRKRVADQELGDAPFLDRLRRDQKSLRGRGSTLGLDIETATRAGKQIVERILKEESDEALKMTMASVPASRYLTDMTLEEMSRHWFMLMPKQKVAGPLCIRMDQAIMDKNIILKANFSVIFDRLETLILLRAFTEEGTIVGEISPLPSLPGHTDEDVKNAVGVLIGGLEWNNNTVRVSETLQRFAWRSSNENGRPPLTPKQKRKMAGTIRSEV
Sequence of Tumor necrosis factor (P01375 whole entry, the tested form may be a part): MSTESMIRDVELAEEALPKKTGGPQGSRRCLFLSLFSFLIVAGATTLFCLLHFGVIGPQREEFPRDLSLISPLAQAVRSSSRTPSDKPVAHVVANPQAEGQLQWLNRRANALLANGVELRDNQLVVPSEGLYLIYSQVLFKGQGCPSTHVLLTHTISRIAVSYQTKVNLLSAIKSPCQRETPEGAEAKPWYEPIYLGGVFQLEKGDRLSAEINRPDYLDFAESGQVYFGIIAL

COc1cc(C(=S)NC2CCCC2)ccc1O
IC50 [1]: 2.58 µM (active)
IC50 [2]: > 100 µM (inactive)

C/C(=N/OCO/N=C(/C)c1ccc(F)cc1)c1ccc(F)cc1
IC50 (Vero [3]): > 12.5 µM (active)

S=C(NCCC(c1ccccc1)c1ccccc1)Nc1cccc(Cl)c1
EC50 [4]: 3.81 µM (active)
EC50 (Streptokinase A): 15.3 µM (active)
EC50 (Streptococcus): 10.5 µM (active)
AC50 [5]: 2.27 µM (active)
IC50 [6]: 6.96 µM (active)
IC50 [7]: 22.9 µM (active)
IC50 [8]: 57.7 µM (active)

CN(CCNC(=O)CN1CCN(Cc2ccccc2Cl)C1=O)Cc1ccccc1
IC50 [9]: 15.9 µM (active)

Cc1ccc(-c2nnc3n2N=C(c2ccc(Br)cc2)CS3)cc1
IC50 (Estrogen receptor): 42.3 µM (not active)
IC50 (Coagulation factor XII): > 50 µM (inactive)

Cc1ccc(-c2nc3ccccc3s2)cc1
IC50 (Tumor necrosis factor): > 20 µM (inactive)
IC50 [10]: > 20 µM (inactive)
IC50 (HEK293): > 20 µM (inactive)

COCc1ccc(CN2CCC(C(=O)Nc3cccc(-c4cccc(Cl)c4)c3)CC2)o1
IC50 [6]: 2.01 µM (active)
IC50 (Nonstructural protein 1): > 100 µM (active)
IC50 [7]: 17.8 µM (active)
IC50 [8]: > 100 µM (inactive)

CCCCOc1ccc(Cc2cnc(N)nc2N)cc1
IC50 (Exodeoxyribonuclease V): 114 µM (inactive)
IC50 [11]: 85.2 µM (inactive)

O=c1c2ccccc2nc(/C=C/c2cc(Br)ccc2O)n1CCCO
IC50 (Vero [3]): > 25 µM (active)
CC50 (Vero [12]): 22.8 µM (active)

CCOc1ccc(NC(S)=NCc2nc3ccccc3[nH]2)cc1
IC50 (Exodeoxyribonuclease V): > 119 µM (inactive)
IC50 [11]: > 119 µM (inactive)

C/C(=N\N=C(N)N)c1ccc(Cl)c(Cl)c1
IC50 [9]: 13.8 µM (active)
